Measurements as given in patent USRE48097E1, “Cephem compounds, their production and use” (priority 2015, dated 2020).
≈ marks a conversion by molar mass, not a printed value. Where two headings read alike, the source gives them in different places.

What was measured:
Assay type in all cases: cell-based
[1] = test system: K. pneumoniae 4104; test: MIC against K. pneumoniae 4104; conditions: K. pneumoniae 4104, KPC-3, TEM-1
Experimental: (§1) As shown, the foregoing composition was tested for minimum inhibitory concentration (MIC, μg/mL) against bacteria listed in Tables 2-3.

[2] = test system: K. pneumoniae 4105; test: MIC against K. pneumoniae 4105; conditions: K. pneumoniae 4105, KPC-3, TEM-1, SHV-11
Experimental: as §1

[3] = test system: K. pneumoniae 4106; test: MIC against K. pneumoniae 4106; conditions: K. pneumoniae 4106, KPC-3, TEM-1, SHV-12, SHV-141
Experimental: as §1

[4] = test system: K. pneumoniae 4107; test: MIC against K. pneumoniae 4107; conditions: K. pneumoniae 4107, KPC-2, TEM-1, SHV-11
Experimental: as §1

[5] = test system: K. pneumoniae 4108; test: MIC against K. pneumoniae 4108; conditions: K. pneumoniae 4108, KPC-3, TEM-166, SHV-12, SHV-141
Experimental: as §1

[6] = test system: K. pneumoniae 2689; test: MIC against K. pneumoniae 2689; conditions: K. pneumoniae 2689, KPC-2
Experimental: as §1

[7] = test system: E. cloacae 2689; test: MIC against E. cloacae 2689; conditions: Table 3, E. cloacae 2689, KPC-2
Experimental: as §1

[8] = test system: E. cloacae 2705; test: MIC against E. cloacae 2705; conditions: Table 3, E. cloacae 2705, VIM-1, KPC-3type
Experimental: as §1

[9] = test system: E. cloacae 2706; test: MIC against E. cloacae 2706; conditions: Table 3, E. cloacae 2706, VIM-1, KPC-3
Experimental: as §1

[10] = test system: E. cloacae 2709; test: MIC against E. cloacae 2709; conditions: Table 3, E. cloacae 2709, KPC-3, VIM-1
Experimental: as §1

[11] = test system: E. cloacae 2710; test: MIC against E. cloacae 2710; conditions: Table 3, E. cloacae 2710, KPC-3, VIM-1
Experimental: as §1

[12] = test system: E. coli 2666; test: MIC against E. coli 2666; conditions: Table 3, E. coli 2666, KPC-2
Experimental: as §1

[13] = test system: E. coli 4103; test: MIC against E. coli 4103; conditions: Table 3, E. coli 4103, KPC-2, TEM-1, CMY-type
Experimental: as §1

[14] = test system: K. pneumoniae 2690; test: MIC against K. pneumoniae 2690; conditions: Table 3, K. pneumoniae 2690, KPC-2
Experimental: as §1

[15] = test system: K. pneumoniae 2711; test: MIC against K. pneumoniae 2711; conditions: Table 3, K. pneumoniae 2711, KPC-3, VIM-1
Experimental: as §1

[16] = test system: K. pneumoniae 2712; test: MIC against K. pneumoniae 2712; conditions: Table 3, K. pneumoniae 2712, KPC-3, VIM-1
Experimental: as §1

[17] = test system: K. pneumoniae 2713; test: MIC against K. pneumoniae 2713; conditions: Table 3, K. pneumoniae 2713, KPC-3, VIM-1
Experimental: as §1

[18] = test system: K. pneumoniae 4088; test: MIC against K. pneumoniae 4088; conditions: Table 3, K. pneumoniae 4088, KPC-3
Experimental: as §1

[19] = test system: P. aeruginosa 2686; test: MIC against P. aeruginosa 2686; conditions: Table 3, P. aeruginosa 2686, KPC-2
Experimental: as §1

[20] = Klebsiella pneumoniae, 4104, Table 3, alone, read-out: MIC
[21] = Table 3, in combination with NXL-104
[22] = Klebsiella pneumoniae, 4105, Table 3, alone, read-out: MIC
[23] = Klebsiella pneumoniae, 4106, Table 3, alone, read-out: MIC
[24] = Klebsiella pneumoniae, 4107, Table 3, alone, read-out: MIC
[25] = Klebsiella pneumoniae, 4108, Table 3, alone, read-out: MIC
[26] = Klebsiella pneumoniae, 2689, Table 3, alone, read-out: MIC
[27] = Enterobacter cloacae, alone, read-out: MIC
[28] = Escherichia coli, alone, read-out: MIC
[29] = Klebsiella pneumoniae, alone, read-out: MIC
[30] = Pseudomonas aeruginosa, alone, read-out: MIC

Row | Compound | MIC [1, 20] [µg/mL] | MIC [1, 21] [µg/mL] | MIC [2, 22] [µg/mL] | MIC [2, 21] [µg/mL] | MIC [3, 23] [µg/mL] | MIC [3, 21] [µg/mL] | MIC [4, 24] [µg/mL] | MIC [4, 21] [µg/mL] | MIC [5, 25] [µg/mL] | MIC [5, 21] [µg/mL] | MIC [6, 26] [µg/mL] | MIC [6, 21] [µg/mL] | MIC [7, 27] [µg/mL] | MIC ([7]; in combination with NXL-104) [µg/mL] | MIC [8, 27] [µg/mL] | MIC ([8]; in combination with NXL-104) [µg/mL] | MIC [9, 27] [µg/mL] | MIC ([9]; in combination with NXL-104) [µg/mL] | MIC [10, 27] [µg/mL] | MIC ([10]; in combination with NXL-104) [µg/mL] | further results
1 | CO/N=C(\C(=O)N[C@@H]1C(=O)N2C(C(=O)[O-])=C(C[n+]3ccc4c(ccn4Cc4cc(C(=N)Nc5nccs5)cs4)c3)CS[C@H]12)c1nc(N)sc1Cl [Example 14, (6R,7R)-7-{[(2Z)-2-(2-Amino-5-chloro-1,3-thiazol-4-yl)-2-(methoxyimino)acetyl]amino}-8-oxo-3-{[1-({4-[N-(1,3-thiazol-2-yl)carbamimidoyl]thiophen-2-yl}methyl)-1H-pyrrolo[3,2-c]pyridin-5-ium-5-yl]methyl}-5-thia-1-azabicyclo[4.2.0]oct-2-ene-2-carboxylate] | 32 (≈ 41.6 µM) | 1 | > 32 | 2 | > 32 | 4 | 16 (≈ 20.8 µM) | 2 | > 32 | 2 | 32 (≈ 41.6 µM) | 1 | 16 (≈ 20.8 µM) | 0.5 | > 32 | >32 | > 32 | 32 | 32 (≈ 41.6 µM) | 4 | MIC [11, 27]: > 32 µg/mL; MIC ([11]; in combination with NXL-104): >32 µg/mL; MIC [12, 28]: 32 µg/mL (≈ 41.6 µM); MIC ([12]; in combination with NXL-104): 1 µg/mL; MIC [13, 28]: > 32 µg/mL; MIC ([13]; in combination with NXL-104): 8 µg/mL; MIC [14, 29]: 32 µg/mL (≈ 41.6 µM); MIC ([14]; in combination with NXL-104): 1 µg/mL; MIC [15, 29]: 4 µg/mL (≈ 5.2 µM); MIC ([15]; in combination with NXL-104): 0.5 µg/mL; MIC [16, 29]: > 32 µg/mL; MIC ([16]; in combination with NXL-104): 4 µg/mL; MIC [17, 29]: > 32 µg/mL; MIC ([17]; in combination with NXL-104): 2 µg/mL; MIC [18, 29]: > 32 µg/mL; MIC ([18]; in combination with NXL-104): 4 µg/mL; MIC [19, 30]: > 32 µg/mL; MIC ([19]; in combination with NXL-104): 16 µg/mL
2 | CC(C)(O/N=C(\C(=O)N[C@@H]1C(=O)N2C(C(=O)[O-])=C(C[n+]3ccc4n(Cc5ccc(C(=N)N)cc5)ccn43)CS[C@H]12)c1csc(N)n1)C(=O)O [Example 4, (6R,7R)-7-{[(2Z)-2-(2-Amino-1,3-thiazol-4-yl)-2-{[(2-carboxypropan-2-yl)oxy]imino}acetyl]amino}-3-{[1-(4-carbamimidoylbenzyl)-1H-imidazo[1,2-b]pyrazol-5-ium-5-yl]methyl}-8-oxo-5-thia-1-azabicyclo[4.2.0]oct-2-ene-2-carboxylate] | 16 (≈ 22.6 µM) | 1 | > 32 | 2 | 32 (≈ 45.3 µM) | 4 | 32 (≈ 45.3 µM) | 2 | > 32 | 2 | 16 (≈ 22.6 µM) | 1 | 4 (≈ 5.66 µM) | 0.5 | > 32 | >32 | > 32 | 32 | 8 (≈ 11.3 µM) | 4 | MIC [11, 27]: > 32 µg/mL; MIC ([11]; in combination with NXL-104): >32 µg/mL; MIC [12, 28]: 32 µg/mL (≈ 45.3 µM); MIC ([12]; in combination with NXL-104): 2 µg/mL; MIC [13, 28]: > 32 µg/mL; MIC ([13]; in combination with NXL-104): 8 µg/mL; MIC [14, 29]: 16 µg/mL (≈ 22.6 µM); MIC ([14]; in combination with NXL-104): 2 µg/mL; MIC [15, 29]: 8 µg/mL (≈ 11.3 µM); MIC ([15]; in combination with NXL-104): 1 µg/mL; MIC [16, 29]: > 32 µg/mL; MIC ([16]; in combination with NXL-104): 4 µg/mL; MIC [17, 29]: > 32 µg/mL; MIC ([17]; in combination with NXL-104): 2 µg/mL; MIC [18, 29]: > 32 µg/mL; MIC ([18]; in combination with NXL-104): 4 µg/mL; MIC [19, 30]: 32 µg/mL (≈ 45.3 µM); MIC ([19]; in combination with NXL-104): 8 µg/mL
3 | CO/N=C(\C(=O)N[C@@H]1C(=O)N2C(C(=O)[O-])=C(C[n+]3ccc4c(ccn4Cc4cc(C(=N)Nc5ccccc5)cs4)c3)CS[C@H]12)c1nc(N)sc1Cl [Example 12, (6R,7R)-7-{[(2Z)-2-(2-Amino-5-chloro-1,3-thiazol-4-yl)-2-(methoxyimino)acetyl]amino}-8-oxo-3-[(1-{[4-(N-phenylcarbamimidoyl)thiophen-2-yl]methyl}-1H-pyrrolo[3,2-c]pyridin-5-ium-5-yl)methyl]-5-thia-1-azabicyclo[4.2.0]oct-2-ene-2-carboxylate] | 16 (≈ 21 µM) | 1 | 32 (≈ 42 µM) | 2 | 32 (≈ 42 µM) | 2 | 16 (≈ 21 µM) | 1 | 32 (≈ 42 µM) | 1 | 16 (≈ 21 µM) | 1 | 32 (≈ 42 µM) | 1 | > 32 | >32 | > 32 | >32 | 32 (≈ 42 µM) | 4 | MIC [11, 27]: > 32 µg/mL; MIC ([11]; in combination with NXL-104): >32 µg/mL; MIC [12, 28]: 16 µg/mL (≈ 21 µM); MIC ([12]; in combination with NXL-104): 1 µg/mL; MIC [13, 28]: > 32 µg/mL; MIC ([13]; in combination with NXL-104): 4 µg/mL; MIC [14, 29]: 8 µg/mL (≈ 10.5 µM); MIC ([14]; in combination with NXL-104): 1 µg/mL; MIC [15, 29]: 4 µg/mL (≈ 5.25 µM); MIC ([15]; in combination with NXL-104): 0.5 µg/mL; MIC [16, 29]: > 32 µg/mL; MIC ([16]; in combination with NXL-104): 4 µg/mL; MIC [17, 29]: > 32 µg/mL; MIC ([17]; in combination with NXL-104): 2 µg/mL; MIC [18, 29]: > 32 µg/mL; MIC ([18]; in combination with NXL-104): 2 µg/mL; MIC [19, 30]: 32 µg/mL (≈ 42 µM); MIC ([19]; in combination with NXL-104): 32 µg/mL
